The values that follow come from patent US11623014B2, “Mini-gastrin analogue, in particular for use in CCK2 receptor positive tumour diagnosis and/or treatment” (Paul Scherrer Institut, priority 2013, dated 2023).

SMILES strings stand for the structures.

The test system of data set [1] is human CCK-2 receptor transfected A431 cells. Description: Biodistribution studies in CD1 nu/nu mice bearing CCK-2 receptor positive and mock A431 tumours. It is filed as in vivo. How it is done: PP-F11N has been investigated according to the CD1 nu/nu mice model. […] FIG. 2 illustrates the biodistribution of PP-F11, PP-F11N and oxidized PP-F11 ox (oxidized PP-F11) after 4 hours in the athymic CD1 nu/nu mice model. Tumour positive: with human CCK-2 receptor transfected A431 cells on one side of the mouse; tumor negative: CCK-2 receptor negative A431 cells on the other side of the mouse. The effect of the higher tumor uptake by the exchange of methionine with norleucine is specifically apparent with compounds having the DGlu6 sequence, different from compounds having a sequence with DGLn6 which is referred to as PP-F10.
CD1 nu/nu mice were injected with 5×10^6 A431 cells. CCK-2 receptor positive A431 cells' were injected into one flank and mock cells on the other as an unspecific control. The tumors reach a weight of about 80 to 120 mg after about 10 days. 150-200 kBq (5 pmol) of the radiolabelled peptides were injected into the tail vein. Mice were killed by CO2 asphyxiation after defined time points post injection. The organs were dissected, weighted and the activity was measured. The % injected activity per gram (% i.A./g) was calculated. The animal experiments were approved by the local animal welfare committee and performed according to national regulations.

Data set [2] can be described thus: Stability of 177Lu-labelled mini-gastrin analogues in human serum/plasma, metabolites by HPLC. It is filed as in vitro ADME. To be noted: human serum, radio-labelled with 177Lu, compared with PP-F11, PP-F10N and PP-F10. How it is done: 12 MBq of the radiolabelled compound was incubated in 2 mL fresh human plasma. A 40 μL probe was taken after 0, 1, 2, 18, 24, 48 and 72 h and added 200 μL (50% Methanol and 50% Acetonitril) in a Mini-UniPrep Filter. The solution is filtered after vortexing. 40 μL of the filtered solution is analyzed by HPLC.

[3] abbreviates: biodistribution after 4 hours, athymic CD1 nu/nu mice.

For `CCCC[C@H](NC(=O)[C@H](Cc1c[nH]c2ccccc12)NC(=O)CNC(=O)[C@H](Cc1ccc(O)cc1)NC(=O)[C@H](C)NC(=O)[C@@H](CCC(=O)O)NC(=O)[C@@H](CCC(=O)O)NC(=O)[C@@H](CCC(=O)O)NC(=O)[C@@H](CCC(=O)O)NC(=O)[C@@H](CCC(=O)O)NC(=O)[C@@H](CCC(=O)O)NC(=O)CN1CCN(CC(=O)O)CCN(CC(=O)O)CCN(CC(=O)O)CC1)C(=O)N[C@@H](CC(=O)O)C(=O)N[C@@H](Cc1ccccc1)C(N)=O` [PP-F11N], in data set [1] (setting [3]), the “accumulation in the kidneys” value is recorded as “very few” and the tumor-noise ratio entry is given as “very favorable”. Also, the tumor uptake result in data set [1] (biodistribution after 4 hours, athymic CD1 nu/nu mice, CCK-2 receptor positive A431 tumour) is listed as “significant higher”. Further, in data set [1] (mouse, in vivo), the tumor-to-kidney entry was “best”. In addition, in data set [2], the pharmacologic stability entry was “highest pharmacologic stability of all probands”.
